Assay results as given in article PMC6801405, “Discovery of 3-Arylquinoxaline Derivatives as Potential Anti-Dengue Virus Agents” (International Journal of Molecular Sciences, 2019).
“Also recorded” adds a separate entry of the source.

How the values were obtained:
DENV2 = assay: microbe, parasite or virus in culture; format: cell-based, dengue virus
Experimental: Anti-DENV activities were determined by firefly luciferase activity.

[1] = Cytotoxicity assay (XTT method); format: cell-based, Human; settings: human, mean ± SD
Experimental: (§1) For cytotoxicity tests, run in parallel with antiviral assays, plates at an initial density of 5 × 10^3 cells/well were treated with or without serial dilutions of test compounds. Cell viability was determined after 72 h at 37 °C in a humidified CO2 (5%) atmosphere by the (2,3-bis[2-methyloxy-4-nitro-5-sulfophenyl]-2H-tetrazolium-5-carboxanilide) (XTT) method.

Huh-7 cells = assay: Cytotoxicity assay (XTT method); format: cell-based, Human
Experimental: as §1

DENV [2] = assay: DENV RNA levels by RT-qPCR in DENV-infected Huh-7 cells; format: cell-based, dengue virus; settings: 0.5, 1, 5 and 10 μM, three days
Excerpt: To further confirm the anti-DENV effect of compound 19a, we treated compound 19a at indicated concentrations in Huh-7 cells for three days.
Total cellular RNA samples were extracted after three days of compound treatment through a Total RNA Miniprep Purification Kit (GeneMark Biolab, Taiwan) following the manufacturer’s instructions, and then transcribed to complementary DNA (cDNA) with Moloney murine leukemia virus (M-MLV) reverse transcriptase (Promega, USA). The levels of DENV-2 replication and COX-2 were analyzed by RT-PCR as described previously with the following specific primers: a forward primer, 5′–[…] AGC–3′, and a reverse primer, 5′–[…]–3′, targeting the DENV-2 NS5 gene 44. DENV-2 and COX-2 RNA levels were normalized to the cellular glyceraldehyde-3-phosphate dehydrogenase (GAPDH) RNA level of each sample.
Figure 2 Inhibition of dengue virus (DENV) RNA expression in DENV-infected Huh-7 cells by 19a. Huh-7 cells were treated with 0.5, 1, 5, and 10 μM 19a for three days. Total RNA was extracted and quantified DENV RNA levels by RT-qPCR. DENV RNA expression was normalized by cellular glyceraldehyde-3-phosphate dehydrogenase (GAPDH) mRNA. Treatment with 0.1% dimethyl sulfoxide (DMSO) served as a mock control. The results are expressed as the means ± standard deviations (SD) of triplicate experiments.

COX-2 promoter = assay: COX-2 promoter-based reporter assay (pCOX-2-Luc) in DENV-infected Huh-7 cells; format: cell-based, Human; settings: increasing concentrations, three days
Experimental: We also used a COX-2 promoter-based reporter assay to evaluate the inhibitory effect of 19a on COX-2 at the transcriptional level. The pCOX-2-Luc, a plasmid encoding firefly luciferase under the control of the COX-2 promoter, was transfected into Huh-7 cells or DENV-infected Huh-7 cells and, then, these plasmid-transfected cells were incubated with 19a at increasing concentrations for three days.
Huh-7-DV-Fluc cells were seeded in 24-well plates at a density of 2 × 10^4 cells per well, and treated with the 3-arylquinoxaline compounds at two concentrations (1 and 10 μM) or 0.1% DMSO as control. After three days of incubation, the luciferase activity assay was performed using the Bright-Glo Luciferase assay system (Promega, Madison, WI, USA) according to the manufacturer’s instructions. […] After three days, protein and RNA levels were analyzed by Western blotting with a specific antibody as previously described respectively.
(§2) Figure 4 Inhibitory effect of 19a on DENV-induced cyclooxygenase-2 (COX-2) expression in Huh-7 cells. […] The results are expressed as the means ± standard deviations (SD) of triplicate experiments.

DENV [3] = assay: Exogenous COX-2 (pCMV-COX-2-Myc) overexpression rescue of DENV replication in Huh-7 cells; format: cell-based, dengue virus; settings: 1 μM; pCMV-COX-2-Myc transfected Huh-7 cells
Experimental: In a previous study, Lin et al. reported that induction of COX-2 could suppress DENV replication. To determine whether compound 19a had impact on COX-2 protein and mRNA expression in Huh-7 cells, we treated Huh-7 cells with 0.5 to 5 μM of 19a. […] To characterize whether the 19a-mediated downregulation of COX-2 expression and its catalytic activity was involved in the suppression of DENV replication, we overexpressed exogenous COX-2 to evaluate the inhibitory activity of 19a on DENV replication. […] Consistently, the exogenous expression of COX-2 attenuated the inhibitory effect of 19a on the non-structural 2B (NS2B) protein levels, as analyzed by Western blotting.
Huh-7-DV-Fluc cells were seeded in 24-well plates at a density of 2 × 10^4 cells per well, and treated with the 3-arylquinoxaline compounds at two concentrations (1 and 10 μM) or 0.1% DMSO as control. […] After three days, protein and RNA levels were analyzed by Western blotting with a specific antibody as previously described respectively.
as §2

COc1ccc(-c2nc3ccccc3nc2C(O)c2ccccc2)cc1 (stereo not shown) [Compound 19a, [3-(4-Methoxyphenyl)quinoxalin-2-yl](phenyl)methanol]
DENV2 % Inhibition at 10 μM (DENV2; 10 μM, Huh-7-DV-Fluc cells, three days, mean ± SD): 82.71 ± 2.88% | SI (selectivity index, CC50/EC50) (DENV2; CC50 Huh-7 / EC50 DENV): >155.04 | inhibition at 1 µM (DENV2; Dengue virus, DENV2, 72 h, 1 μM, Huh-7-DV-Fluc cells, three days, mean ± SD): 36.7 ± 3.71% | EC50 (DENV2; Dengue virus, DENV2, DENV replication, mean ± SD, read-out: EC50 (concentration resulting in a 50% inhibition in virus production)): 1290 ± 740 nM | fold more anti-DENV activity than ribavirin (DENV2; EC50 compared with ribavirin): approximately 10 fold | viability at 72 h, 20 µM ([1]; Huh-7 cells, 20 μM, 72 h, XTT, read-out: Huh-7 Cell % viability at 20 μM): 99.7 ± 1.65% | viability at 72 h, 200 µM ([1]; Huh-7 cells, 200 μM, 72 h, XTT, read-out: Huh-7 Cell % viability at 200 μM): 85% | CC50 at 72 h ([1]; uninfected Huh-7 cells, read-out: CC50 (concentration causing a 50% growth inhibition of uninfected Huh-7 cells)): > 200000 nM | Huh-7 Cell % viability at 200 μM (Huh-7 cells; 200 μM, 72 h, XTT, mean ± SD): 85.26 ± 5.63% | cytotoxicity in words (Huh-7 cells; Huh-7 cells): non-cytotoxic; also recorded: no significant cell cytotoxicity | DENV RNA replication (RT-qPCR) (DENV [2]): dose-dependently reduced | DENV-elevated COX-2 promoter activity (COX-2 promoter): dose-dependently decreased | viral RNA level reduced by compound upon increasing exogenous COX-2-Myc expression (DENV [3]): gradually rescued
